Laboratory results reported in patent US11850220B2 (Augusta University Research Institute, Inc., priority 2020, dated 2023).

Assays:
hot plate = hot plate technique (central analgesic); type: in vivo; details: for Potency: Relative to indomethacin at 120 min.
[1] = system: acetic acid-induced abdominal writhing; assay: acetic acid-induced abdominal writhing technique (peripheral analgesic); type: in vivo; details: for Potency: Relative to indomethacin; for % Inhibition/protection / Writing reflex ± SEM: in vivo; for % Inhibition/protection: test concentration or dose not given here; for Writing reflex ± SEM: test concentration or dose not given here
[2] = system: carrageenan-induced paw edema; assay: carrageenan-induced paw edema technique (anti-inflammatory); type: in vivo; details: for Observed (1/property): 1/(% inhibition of edema thickness at 3 h effect); for Observed (1/property): test concentration or dose not given here; for Potency (% Inhibition relative to indomethacin at 3 h effect): test concentration or dose not given here
Text: Anti-inflammatory properties of the ibuprofen-amino acid conjugate (5a-j) and ibuprofen-amino acid-4-aminophenol conjugates 7a-j were studied by the standard carrageenan-induced paw edema technique (Naumov, R. N. et al., Bioorg. Med. Chem. Lett. 2015, 25, 2314-2320; Tiwari, A. D. et al., Org. Biomol. Chem. 2014, 12, 7238-7249).

COX-2 = biological target: T1, COX-2 (Homo sapiens, UniProt P35354); assay: COX-1/2 bio-assay: COX-2; type: biochemical; details: for IC50: read-out: IC50 ± SD, COX-2; for SI(COX-2/COX-1): selectivity index COX-2/COX-1
T1 sequence (P35354 18-604): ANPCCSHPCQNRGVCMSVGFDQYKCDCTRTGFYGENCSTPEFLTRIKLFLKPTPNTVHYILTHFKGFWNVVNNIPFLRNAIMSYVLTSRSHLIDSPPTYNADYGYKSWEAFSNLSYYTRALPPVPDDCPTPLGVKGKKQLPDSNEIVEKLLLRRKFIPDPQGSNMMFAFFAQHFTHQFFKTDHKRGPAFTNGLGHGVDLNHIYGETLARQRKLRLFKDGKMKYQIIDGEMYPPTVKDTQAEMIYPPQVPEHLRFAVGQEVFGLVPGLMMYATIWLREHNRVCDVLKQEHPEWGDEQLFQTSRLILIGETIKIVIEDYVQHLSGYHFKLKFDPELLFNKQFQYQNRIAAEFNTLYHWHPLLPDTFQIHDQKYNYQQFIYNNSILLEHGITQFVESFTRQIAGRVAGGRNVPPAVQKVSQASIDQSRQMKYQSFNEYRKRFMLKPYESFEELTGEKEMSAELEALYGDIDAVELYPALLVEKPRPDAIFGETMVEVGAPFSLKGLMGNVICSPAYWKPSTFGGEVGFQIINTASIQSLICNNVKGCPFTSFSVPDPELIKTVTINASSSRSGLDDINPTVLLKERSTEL
Text: (§1) Cyclooxygenases (COX) are the key enzymes capable of the conversion of arachidonic acid to prostaglandins.

animal gastric mucosa = assay: ulcerogenic liability; type: in vivo; details: in vivo
COX-1 = COX-1 (Homo sapiens, UniProt P23219); assay: COX-1/2 bio-assay: COX-1; type: biochemical; details: read-out: IC50 ± SD, COX-1
COX-1, sequence (P23219 24-599): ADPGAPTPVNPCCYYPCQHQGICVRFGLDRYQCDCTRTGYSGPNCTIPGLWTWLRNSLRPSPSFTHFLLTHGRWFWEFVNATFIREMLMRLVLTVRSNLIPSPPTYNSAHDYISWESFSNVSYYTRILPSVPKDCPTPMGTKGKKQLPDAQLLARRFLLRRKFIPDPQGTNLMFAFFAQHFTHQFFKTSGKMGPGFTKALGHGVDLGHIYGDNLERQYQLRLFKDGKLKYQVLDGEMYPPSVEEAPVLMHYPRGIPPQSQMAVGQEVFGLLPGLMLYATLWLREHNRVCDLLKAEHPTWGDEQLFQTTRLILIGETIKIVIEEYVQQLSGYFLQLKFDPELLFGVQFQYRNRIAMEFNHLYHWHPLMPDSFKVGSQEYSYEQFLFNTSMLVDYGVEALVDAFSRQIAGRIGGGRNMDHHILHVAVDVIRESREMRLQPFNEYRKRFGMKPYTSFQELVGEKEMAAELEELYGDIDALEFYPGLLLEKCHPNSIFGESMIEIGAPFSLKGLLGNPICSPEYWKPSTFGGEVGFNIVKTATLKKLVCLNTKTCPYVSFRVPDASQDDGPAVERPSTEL
Text: as §1

[3] = % inhibition of edema thickness at 3 h effect, Table 7
[4] = anti-inflammatory property (% inhibition of edema at 3 h), Table 8

| SMILES | % protection (hot plate; After 30 min.) | Latency period ± SEM (hot plate; After 30 min.) | % protection (hot plate; After 60 min.) | Latency period ± SEM (hot plate; After 60 min.) | % protection (hot plate; After 90 min.) | Latency period ± SEM (hot plate; After 90 min.) | % protection (hot plate; After 120 min.) | Latency period ± SEM (hot plate; After 120 min.) | Potency (hot plate) | Potency [1] | % Inhibition/protection [1] | Writing reflex ± SEM [1] | Observed (1/property) ([2]; Table 7) | % inhibition of edema ([2]; 1 h) | Mean edema thickness ([2]; 1 h) | % inhibition of edema ([2]; 2 h) | Mean edema thickness ([2]; 2 h) | % inhibition of edema ([2]; 3 h) | Mean edema thickness ([2]; 3 h) | % inhibition of edema ([2]; 4 h) | also measured |
| --- | --- | --- | --- | --- | --- | --- | --- | --- | --- | --- | --- | --- | --- | --- | --- | --- | --- | --- | --- | --- | --- |
| CC[C@H](C)[C@@H](NC(=O)C(C)c1ccc(CC(C)C)cc1)C(=O)Nc1ccc(O)cc1 (stereo partly shown) [Compound 7f] | (64.5) % | 3.98 ± 0.06 s | (74.0) % | 3.88 ± 0.02 s | (76.4) % | 3.88 ± 0.04 s | (164.4) % | 5.79 ± 0.04 s | 290 | 155 | 85.3% | 14.3 ± 0.8 | 0.01111 | 42% | 0.71 ± 0.01 mm | 48% | 0.79 ± 0.04 mm | 90% | 0.13 ± 0.02 mm | 16% | melting point: 205 °C; potency, central analgesic properties (hot plate; in vivo): 2.9 folds of indomethacin; Mean edema thickness ([2]; 4 h): 1.05 ± 0.05 mm; % inhibition of edema ([2]; 24 h): 42%; Mean edema thickness ([2]; 24 h): 0.11 ± 0.02 mm; Observed property [2, 3]: 90%; Observed property [2, 4]: 90%; Potency (% Inhibition relative to indomethacin at 3 h effect) [2]: 113%; IC50 (COX-2): 141 ± 11.1 µM; SI(COX-2/COX-1) (COX-2): 29.0; % Incidence of ulcer divided by 10 (animal gastric mucosa): 0; Average of ulcer number (animal gastric mucosa): 0; Average severity of ulcer (animal gastric mucosa): 0; Number of animals with ulcer (animal gastric mucosa): 0; Ulcer index (animal gastric mucosa): 0; IC50 (COX-1): 4.86 ± 0.24 µM |
| CC(C)Cc1ccc(C(C)C(=O)N[C@H](C(=O)Nc2ccc(O)cc2)C(C)C)cc1 (stereo partly drawn) [Compound 7h, (2S)-N-(4-Hydroxyphenyl)-2-(2-(4-isobutylphenyl)propanamido)-3-methylbutanamide] | (58.3) % | 3.83 ± 0.02 s | (62.3) % | 3.62 ± 0.03 s | (58.6) % | 3.49 ± 0.18 s | (50.7) % | 3.30 ± 0.02 s | 90 | 137 | 75.3% | 24.0 ± 0.4 | 0.01333 | 11% | 1.09 ± 0.06 mm | 54% | 0.69 ± 0.05 mm | 75% | 0.32 ± 0.03 mm | 48% | melting point: 202.2 °C; Mean edema thickness ([2]; 4 h): 0.65 ± 0.04 mm; % inhibition of edema ([2]; 24 h): 21%; Mean edema thickness ([2]; 24 h): 0.15 ± 0.03 mm; Observed property [2, 3]: 75%; Observed property [2, 4]: 75%; Potency (% Inhibition relative to indomethacin at 3 h effect) [2]: 94%; IC50 (COX-2): 133 ± 9.4 µM; SI(COX-2/COX-1) (COX-2): 12.8; % Incidence of ulcer divided by 10 (animal gastric mucosa): 0; Average of ulcer number (animal gastric mucosa): 0; Average severity of ulcer (animal gastric mucosa): 0; Number of animals with ulcer (animal gastric mucosa): 0; Ulcer index (animal gastric mucosa): 0; IC50 (COX-1): 10.4 ± 0.51 µM |
| CC(C)Cc1ccc(C(C)C(=O)N[C@@H](CC(C)C)C(=O)Nc2ccc(O)cc2)cc1 (stereo partly drawn) [Compound 7g, (2S)-N-(4-Hydroxyphenyl)-2-(2-(4-isobutylphenyl)propanamido)-4-methylpentanamide] | (36.0) % | 3.29 ± 0.05 s | (39.0) % | 3.10 ± 0.01 s | (43.6) % | 3.16 ± 0.06 s | (79.0) % | 3.92 ± 0.08 s | 140 | 144 | 79.1% | 20.3 ± 0.9 | 0.01333 | 30% | 0.86 ± 0.03 mm | 39% | 0.92 ± 0.04 mm | 75% | 0.33 ± 0.03 mm | 48% | melting point: 230.5 °C; Mean edema thickness ([2]; 4 h): 0.65 ± 0.03 mm; % inhibition of edema ([2]; 24 h): 37%; Mean edema thickness ([2]; 24 h): 0.12 ± 0.03 mm; Observed property [2, 3]: 75%; Observed property [2, 4]: 75%; Potency (% Inhibition relative to indomethacin at 3 h effect) [2]: 94%; IC50 (COX-2): 144 ± 11.2 µM; SI(COX-2/COX-1) (COX-2): 54.3; % Incidence of ulcer divided by 10 (animal gastric mucosa): 0; Average of ulcer number (animal gastric mucosa): 0; Average severity of ulcer (animal gastric mucosa): 0; Number of animals with ulcer (animal gastric mucosa): 0; Ulcer index (animal gastric mucosa): 0; IC50 (COX-1): 2.65 ± 0.13 µM |
| CC(C)Cc1ccc(C(C)C(=O)N[C@@H](CCC(N)=O)C(=O)Nc2ccc(O)cc2)cc1 (stereo partly drawn) [Compound 7j, (2S)—N1-(4-Hydroxyphenyl)-2-(2-(4-isobutylphenyl)propanamido)pentanediamide] | (60.7) % | 3.89 ± 0.03 s | (64.6) % | 3.67 ± 0.02 s | (74.5) % | 3.84 ± 0.15 s | (124.7) % | 4.92 ± 0.07 s | 220 | 34 | 18.8% | 79.0 ± 1.8 | 0.01282 | 55% | 0.55 ± 0.04 mm | 71% | 0.44 ± 0.02 mm | 78% | 0.28 ± 0.01 mm | 47% | Mean edema thickness ([2]; 4 h): 0.66 ± 0.03 mm; % inhibition of edema ([2]; 24 h): 32%; Mean edema thickness ([2]; 24 h): 0.13 ± 0.03 mm; Observed property [2, 3]: 78%; Observed property [2, 4]: 78%; Potency (% Inhibition relative to indomethacin at 3 h effect) [2]: 98%; IC50 (COX-2): 116 ± 8.23 µM; SI(COX-2/COX-1) (COX-2): 14.0; % Incidence of ulcer divided by 10 (animal gastric mucosa): 0; Average of ulcer number (animal gastric mucosa): 0; Average severity of ulcer (animal gastric mucosa): 0; Number of animals with ulcer (animal gastric mucosa): 0; Ulcer index (animal gastric mucosa): 0; IC50 (COX-1): 8.29 ± 0.41 µM |
| CC(C)Cc1ccc(C(C)C(=O)N[C@@H](Cc2ccccc2)C(=O)Nc2ccc(O)cc2)cc1 (stereo partly drawn) [Compound 7e, (2S)-N-(4-Hydroxyphenyl)-2-(2-(4-isobutylphenyl)propanamido)-3-phenylpropanamide] | (78.1) % | 4.31 ± 0.04 s | (104.9) % | 4.57 ± 0.03 s | (136.4) % | 5.20 ± 0.07 s | (144.3) % | 5.35 ± 0.03 s | 255 | 134 | 73.6% | 25.7 ± 1.0 | 0.01333 | 38% | 0.76 ± 0.05 mm | 69% | 0.47 ± 0.03 mm | 75% | 0.32 ± 0.01 mm | 77% | melting point: 168.7 °C; Mean edema thickness ([2]; 4 h): 0.29 ± 0.03 mm; % inhibition of edema ([2]; 24 h): 11%; Mean edema thickness ([2]; 24 h): 0.17 ± 0.03 mm; Observed property [2, 3]: 75%; Observed property [2, 4]: 75%; Potency (% Inhibition relative to indomethacin at 3 h effect) [2]: 94%; IC50 (COX-2): 69.8 ± 4.93 µM; SI(COX-2/COX-1) (COX-2): 5.3; % Incidence of ulcer divided by 10 (animal gastric mucosa): 0; Average of ulcer number (animal gastric mucosa): 0; Average severity of ulcer (animal gastric mucosa): 0; Number of animals with ulcer (animal gastric mucosa): 0; Ulcer index (animal gastric mucosa): 0; IC50 (COX-1): 13.2 ± 0.65 µM |
